Data published in patent US9133236B2, “Connective tissue stimulating peptides” (priority 2002, dated 2015).
Where no end group is shown, it is not given here. [ ]: non-standard residue; d: D form. Hyp = O=C(O)[C@@H]1C[C@@H](O)CN1

Legend:
[1] = tested on: tibia; assay: Periosteal tibia injection, DEXA bone mineral density and content; format: in vivo, male Wistar rats; conditions: 7 days post injection; for changes in BMC (bone mineral content) / changes in BMD (bone mineral density): treated whole tibia in all regions, DEXA, SKELITE powder carrier
Description: BCSP1 peptide and BCSP4 peptide were tested at four dose levels, 0.05, 0.5, 1.0 & 5.0 mg/rat or vehicle, n=6 per dose. Sixty male Wistar rats, weighing 90-110 grams, were randomized into two groups, ear tagged and left undisturbed for 1 week prior to the procedure. Food and water are administered ad libitum. Animals weighed 150-190 grams at time of injection. Group 1 received injections of BCSP4 peptide on day 8 of acclimation. Group 2 received injections of BCSP1 peptide on day 9 of acclimation. Dissections were conducted on respective days, 7 days post injection.
The peptides were dissolved in sterile water at 0.05-5 mgs per 100 microliter volume, added to 0.5 mg of a dry synthetic biomaterial compound (SKELITE™) powder and lyophilized onto the carrier. Samples are resuspended in 100 microliters of sterile saline for injection. Delivery of the test compound was made under a general anaesthetic of Isofluorane with oxygen. Using a 0.5 cc insulin syringe fitted with a 28G1/2″ needle, the peptides were deposited onto the periosteal surface of the right medial tibia surface proximal to the knee under the Tibialis cranialis muscle group. Control animals are injected with saline vehicle and a synthetic biomaterial compound (SKELITE™) carrier.
Animals were euthanized with carbon dioxide and dissected to remove the treated right tibia and contra-lateral control limb, 7 days post injection. Muscle and soft connective tissue is dissected away prior to fixation in 70% ethanol.
Each tibia set was scanned as a pair for bone mineral density (BMD) and bone mineral content (BMC) on a Norland Eclipse DEXA scanner in small subject mode. Percent increases in local BMD (FIG. 5) were calculated against the untreated contra-lateral limb. […] This increase in physical size reduces the overall percentage increase in BMD (BMD=BMC/cm^2). Each tibia was analyzed in 3 contiguous regions, proximal, medial and distal as well as whole tibia measurements. Comparisons and statistical assessment of dose versus vehicle were conducted for each peptide for bone forming activity using a standard student t-test.

[2] = tested on: rat calvaria cultures; assay: Bone nodule formation assay, alizarin red staining; format: cell-based; conditions: 10 days
Description: (§1) BCSP1 was tested in three assays to understand the mechanism of bone stimulation by the peptide. Dose ranges in the microgram range were used to generate dose response curves. All assays used primary rat osteoblast cultures from bone marrow or calvaria.
(§2) Osteoblast proliferation was accessed using a DNA based assay which measures bromodeoxyuridine (BrdU) incorporation. Differentiation of osteoblasts was determined using the mid to late stage bone marker Alkaline Phosphatase. Late stage differentiation and mineralization was determined using a Bone Nodule formation assay (calvaria only).
Rat calvaria cultures were maintained for 10 days in the presence of BCSP1 at a dose range of 1 ng/ml to 100 μg/ml with dosing provided at each fluid change. Mineralized bone nodules were detected by staining with alizarin red. Image analysis was conducted with an Alpha Imager 2000™ to count and quantify nodule area. […] Increased alkaline phosphatase would lead to increases in total mineralized area.

[3] = tested on: osteoblast cultures derived from rat bone marrow; assay: Osteoblast proliferation, BrdU incorporation, bone marrow derived cultures; format: cell-based; conditions: 24 hr exposure
Description: as §1, §2
Cells were cultured for four days prior to a 24 hr exposure to the peptide (FIG. 11).

[4] = tested on: bovine chondrocytes; assay: [3H] thymidine incorporation assay, bovine primary chondrocyte cultures; format: cell-based
Description: (§3) BCSP1 was tested in vitro to determine effect on bovine and human primary chondrocyte cultures using a [3H] thymidine incorporation assay. Cells were seeded at […] for human chondrocytes (96 well plate) and allowed to attach for 48 h (medium containing 10% fetal bovine serum (FBS). Pre-confluent cells were then treated in quaduplicate with BCSP1 (0, 10, 20 and 40 ng/ml for 48 hrs and with [3H]thymidine ([…]) for the last 24 hrs (medium containing 2% FBS). The culture medium used was Dulbecco's Modified Eagle Medium (DMEM) (Gibco, Cat. #23800) containing 200 units/ml Penicillin, 200 ug/ml Streptomycin and 10% FBS for growth and 2% FBS for dosing.

[5] = tested on: rat bone marrow derived osteoblasts; assay: Cell bound alkaline phosphatase, bone marrow derived osteoblasts; format: cell-based
Description: as §1, §2
(§4) Cell bound alkaline phosphatase from cell lysates of rat bone marrow derived osteoblasts and rat calvaria derived osteoblasts. BCSP1 was provided at a dose range of 100 μg/ml to 1 μg/mL. Cells were cultured for 3 days prior to a 48 hr exposure to the peptide.

[6] = tested on: rat calvaria derived osteoblasts; assay: Cell bound alkaline phosphatase, calvaria derived osteoblasts; format: cell-based; conditions: rat calvaria cultures (RC); 10 μg/ml to 100 μg/ml; 48 hr exposure
Description: as §1, §2, §4

[7] = tested on: human chondrocytes; assay: [3H] thymidine incorporation assay, human primary chondrocyte cultures; format: cell-based
Description: as §3

[8] = tested on: osteoblast cultures derived from rat calvaria; assay: Osteoblast proliferation, BrdU incorporation, calvaria derived cultures; format: cell-based; conditions: dose range of 1.3-6.4 ng/ml; 24 hr exposure
Description: as §1, §2
Cells were cultured for four days prior to a 24 hr exposure to the peptide at a dose range from 100 μg/ml to 1.3 ng/ml of peptide (FIG. 12).

PGPIG [BCSP7]
changes in BMC (bone mineral content) [1]: Significant changes
changes in BMD (bone mineral density) [1]: Significant changes

PGPIGPPGPR [BCSP10]
changes in BMC (bone mineral content) [1]: Significant changes
changes in BMD (bone mineral density) [1]: Significant changes

PGPIGP [BCSP9]
changes in BMC (bone mineral content) [1]: Significant changes
changes in BMD (bone mineral density) [1]: Significant changes

NGLPGPIGP* (NGLPGPIG[Hyp]) [BCSP1, P* is hydroxyproline]
number of bone nodules formed ([2]; 1 ng/ml and 10 ng/ml range): slight increase
number of bone nodules formed ([2]; 1 ng/ml to 100 μg/ml): minimal changes
total mineralized bone nodule area (size of nodules) ([2]; 1 ng/ml to 100 μg/ml, dose dependent): significantly increased
increase in DNA synthesis ([3]; rat bone marrow osteoblasts, up to 100 μg/ml): ≤ 75%
osteoblast proliferation ([3]; to 100 μg/ml): dose response increase
proliferation of chondrocyte cells ([4]; 10, 20 and 40 ng/ml, 48 hrs): dose dependent increase
effect on proliferation ([4]; doses in the nanogram range): up to 3 fold
specific activity of alkaline phosphatase ([5]; further experimentation, not shown, culture not specified): increase in specific activity
alkaline phosphatase over control (vehicle) ([5]; rat bone marrow cultures (RBM), 1 μg/ml to 100 μg/ml, 48 hr exposure): dose dependent response
bone size ([1]; treated tibia): increase in bone size
alkaline phosphatase over control (vehicle) [6]: dose dependent response
proliferation of chondrocyte cells ([7]; 10, 20 and 40 ng/ml, 48 hrs): dose dependent increase
effect on proliferation ([7]; doses in the nanogram range): up to 3 fold
osteoblast proliferation [8]: statistically significant increase
